Test results reported in PMC12655527, “An Investigational Study on the Role of ADME Agents’ Genetic Variation on DD217 Pharmacokinetics and Safety Profile” (Pharmaceuticals, 2025).

What was measured:
[1] = tested on: CYP; set-up: method as in DrugBank. Betrixaban (DB12364); conditions: ref DrugBank. Betrixaban (DB12364); cited from earlier work
[2] = tested on: P-glycoprotein (ABCB1); set-up: method as in earlier work; conditions: cited from earlier work
[3] = tested on: patients undergoing knee replacement surgery; assay: Thromboembolic complications (DVT/PE) during 14-day therapy, phase II trial; assay type: in vivo, human; conditions: 14 days
Text: (§1) The design, eligibility criteria, and outcomes of the phase II clinical trial evaluating the safety and tolerability of DD217 (NCT05189002, ClinicalTrials.gov) have been described previously. Briefly, this was a multicenter, double-blind, randomized, prospective phase II study designed to determine the optimal dosing regimen and to assess the safety and efficacy of DD217 for the prevention of venous thromboembolism (VTE) in patients undergoing knee replacement surgery. Patients were randomized into one of three groups: two groups received oral DD217 at doses of 40 mg or 60 mg once daily, starting on the morning of the first postoperative day, and one group received the active comparator, dalteparin sodium. The treatment duration was 14 days.
(§2) In total, seven cases of DVT/PE were documented during the trial: four in the DD217 40 mg/day group, one in the DD217 60 mg/day group, and two in the dalteparin sodium group. In addition, two bleeding events were recorded: one clinically relevant non-major bleed in the DD217 60 mg/day group and one clinically non-relevant minor bleed in the dalteparin sodium group.

[4] = tested on: patients undergoing knee replacement surgery; assay: Bleeding events during 14-day therapy, phase II trial; assay type: in vivo, human
Text: as §1, §2

| Compound | share of metabolism via CYP [1] [%] | P-glycoprotein (ABCB1) substrate status [2] | cases of DVT/PE ([3]; dalteparin sodium group (18 patients)) | PE/DVT, n (safety outcomes) ([3]; dalteparin sodium, of 18 patients) [n] | bleeding events ([4]; dalteparin sodium group, clinically non-relevant minor bleed) | Bleeding, n (safety outcomes) ([4]; dalteparin sodium, 14 days, of 18 patients) [n] |
| --- | --- | --- | --- | --- | --- | --- |
| COc1ccc(NC(=O)c2ccc(C(=N)N(C)C)cc2)c(C(=O)Nc2ccc(Cl)cn2)c1 [Betrixaban] | < 1 | P-glycoprotein (ABCB1) substrate | – | – | – | – |
| dalteparin sodium [reference compound] | – | – | two | 2 | one | 1 |
